Source: patent US8598356B2, “Heteroaryl-substituted urea modulators of fatty acid amide hydrolase” (Janssen Pharmaceutica NV, priority 2008, dated 2013)

Columns and labels:
Human FAAH = target: T1, Human FAAH (Homo sapiens, UniProt O00519); experiment: Assay Method 1: FAAH assay, hydrolysis of 3H-anandamide by cell homogenate; format: biochemical; details: T84 or transfected SK-N-MC cell homogenate, 3H-AEA 80 nM, rt 1 h, average of results obtained
T1 construct: expressed in transfected cells; alternatively T84 frozen cell pellets
T1 sequence (O00519 1-579): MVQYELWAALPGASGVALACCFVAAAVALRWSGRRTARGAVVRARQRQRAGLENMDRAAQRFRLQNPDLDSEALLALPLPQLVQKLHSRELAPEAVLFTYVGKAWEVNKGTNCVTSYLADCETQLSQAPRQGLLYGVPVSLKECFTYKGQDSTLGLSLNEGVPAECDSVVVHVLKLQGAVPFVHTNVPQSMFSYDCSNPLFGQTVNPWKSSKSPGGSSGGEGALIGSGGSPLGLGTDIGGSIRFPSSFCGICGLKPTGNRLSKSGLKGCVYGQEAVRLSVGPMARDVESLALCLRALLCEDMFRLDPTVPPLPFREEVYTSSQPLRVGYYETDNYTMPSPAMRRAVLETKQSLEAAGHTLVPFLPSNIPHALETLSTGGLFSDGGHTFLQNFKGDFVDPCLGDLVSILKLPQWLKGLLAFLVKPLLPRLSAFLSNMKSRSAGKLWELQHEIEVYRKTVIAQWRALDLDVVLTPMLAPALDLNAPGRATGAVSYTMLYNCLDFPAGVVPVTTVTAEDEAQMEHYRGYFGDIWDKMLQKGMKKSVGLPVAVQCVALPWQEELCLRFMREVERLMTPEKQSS
Protocol: A. Transfection of Cells with Human FAAH
(§1) A 10-cm tissue culture dish with a confluent monolayer of SK-N-MC cells was split 2 days (d) prior to transfection. Using sterile technique, the media was removed and the cells were detached from the dish by the addition of trypsin. One fifth of the cells were then placed onto a new 10-cm dish. Cells were grown in a 37° C. incubator with 5% CO2 in Minimal Essential Media Eagle with 10% Fetal Bovine Serum. After 2 d, cells were approximately 80% confluent. These cells were removed from the dish with trypsin and pelleted in a clinical centrifuge. The pellet was re-suspended in 400 μL complete media and transferred to an electroporation cuvette with a 0.4 cm gap between the electrodes. Supercoiled human FAAH cDNA (1 μg) was added to the cells and mixed. The voltage for the electroporation was set at 0.25 kV, and the capacitance was set at 960 μF. After electroporation, the cells were diluted into complete media (10 mL) and plated onto four 10-cm dishes. Because of the variability in the efficiency of electroporation, four different concentrations of cells were plated. The ratios used were 1:20, 1:10, and 1:5, with the remainder of the cells being added to the fourth dish. The cells were allowed to recover for 24 h before adding the selection media (complete media with 600 μg/mL G418). After 10 d, dishes were analyzed for surviving colonies of cells. Dishes with well-isolated colonies were used. Cells from individual colonies were isolated and tested.
(§2) T84 frozen cell pellets or transfected SK-N-MC cells (contents of 1×15 cm culture dishes) were homogenized in 50 mL of FAAH assay buffer (125 mM Tris, 1 mM EDTA, 0.2% Glycerol, 0.02% Triton X-100, 0.4 mM Hepes, pH 9). The assay mixture consisted of 50 μL of the cell homogenate, 10 μL of the test compound, and 40 μL of anandamide [1-^3H-ethanolamine] (^3H-AEA, Perkin-Elmer, 10.3 Ci/mmol), which was added last, for a final tracer concentration of 80 nM. The reaction mixture was incubated at rt for 1 h. During the incubation, 96-well Multiscreen filter plates (catalog number MAFCNOB50; Millipore, Bedford, Mass., USA) were loaded with 25 μL of activated charcoal (Multiscreen column loader, catalog number MACL09625, Millipore) and washed once with 100 μL of MeOH. Also during the incubation, 96-well DYNEX MicroLite plates (catalog number NL510410) were loaded with 100 μL of MicroScint40 (catalog number 6013641, Packard Bioscience, Meriden, Conn., USA). After the 1 h incubation, 60 μL of the reaction mixture were transferred to the charcoal plates, which were then assembled on top of the DYNEX plates using
Centrifuge Alignment Frames (catalog number MACF09604, Millipore). The unbound labeled ethanolamine was centrifuged through to the bottom plate (5 min at 2000 rpm), which was preloaded with the scintillant, as described above. The plates were sealed and left at rt for 1 h before counting on a Hewlett Packard TopCount.
(§3) Results for compounds tested in these assays are summarized in Table 1, as an average of results obtained. Compounds were tested in free base, hydrochloride salt, and/or trifluoroacetic acid salt forms. Where activity is shown as greater than (>) a particular value, the value is the solubility limit of the compound in the assay medium or the highest concentration tested in the assay.

Rat FAAH = target: T2, Rat FAAH (Rattus norvegicus, UniProt P97612); experiment: Assay Method 2: FAAH assay, hydrolysis of 3H-anandamide by cell homogenate; format: biochemical; details: T84 or transfected SK-N-MC cell homogenate, 3H-AEA 80 nM, rt 1 h, average of results obtained
T2 construct: expressed in transfected cells
T2 sequence (P97612 1-579): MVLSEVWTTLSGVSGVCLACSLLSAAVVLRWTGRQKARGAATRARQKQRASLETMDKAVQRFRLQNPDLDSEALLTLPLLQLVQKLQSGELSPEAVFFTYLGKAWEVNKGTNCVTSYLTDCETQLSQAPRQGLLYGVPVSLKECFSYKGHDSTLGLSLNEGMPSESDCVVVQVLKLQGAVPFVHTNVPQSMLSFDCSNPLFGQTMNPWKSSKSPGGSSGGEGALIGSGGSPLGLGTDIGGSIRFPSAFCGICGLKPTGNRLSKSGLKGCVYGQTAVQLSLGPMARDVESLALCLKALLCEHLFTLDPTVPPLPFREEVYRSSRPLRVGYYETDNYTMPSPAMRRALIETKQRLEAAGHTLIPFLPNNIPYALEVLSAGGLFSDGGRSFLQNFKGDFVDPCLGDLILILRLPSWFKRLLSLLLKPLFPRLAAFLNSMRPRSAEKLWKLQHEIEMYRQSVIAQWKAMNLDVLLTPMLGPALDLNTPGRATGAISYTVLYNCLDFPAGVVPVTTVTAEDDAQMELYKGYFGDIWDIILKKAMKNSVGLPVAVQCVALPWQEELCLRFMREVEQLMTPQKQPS
Protocol: A. Transfection of Cells with Rat FAAH
as §1, with “rat” for “human”, “[…]” for “960 μF.”
as §2, with “25” for “25 μL”, “using Centrifuge Alignment Frames (catalog number MACF09604, Millipore). The unbound labeled ethanolamine was centrifuged through to the bottom plate (5 min at 2000 rpm), which was preloaded with the scintillant, as described above. The plates were sealed and left at rt for 1 h before counting on a Hewlett Packard TopCount.” for “using”
as §3

IC50 (Human FAAH) [nM]	IC50 (Rat FAAH) [nM]	Structure (SMILES)
1000	> 10000	O=C(Nc1cccnc1)N1CCCC(Cc2cnc3ccccc3c2)C1 (centres unmarked) [Example 16, 3-Quinolin-3-ylmethyl-piperidine-1-carboxylic acid pyridin-3-ylamide]
48	180	O=C(Nc1cccnc1)N1CCCC(Cc2ccc(Cl)c(Cl)c2)C1 (centres unmarked) [Example 17, 3-(3,4-Dichloro-benzyl)-piperidine-1-carboxylic acid pyridin-3-ylamide]
190	450	O=C(Nc1cccnc1)N1CCCC(Cc2cccc(OC(F)(F)F)c2)C1 (centres unmarked) [Example 18, 3-(3-Trifluoromethoxy-benzyl)-piperidine-1-carboxylic acid pyridin-3-ylamide]
430	1600	O=C(Nc1cccnc1)N1CCCC(Cc2ccc(OC(F)(F)F)cc2)C1 (centres unmarked) [Example 19, 3-(4-Trifluoromethoxy-benzyl)-piperidine-1-carboxylic acid pyridin-3-ylamide]
